Data from ChEMBL document CHEMBL1201862, “PubChem BioAssay data set” (2004).
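Method: 48-hour compound exposure of cells in 96-well plates, five concentrations, linear interpolation of endpoints. GI50 is the concentration that inhibits growth by half.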 Active and inactive are the calls of the source. No stated cut-off is given here; in the data, active = GI50 up to about 1.1 µM and inactive = higher.

Tests used:
Experiment in all cases: NCI-60 cell line screen, 48 h
NCI-H23 = system: NCI-H23
NCI-H522 = system: NCI-H522
MDA-MB-231 = system: MDA-MB-231
KM12 = system: KM12
HCT-116 = system: HCT-116
UACC-62 = system: UACC-62
Malme-3M = system: Malme-3M
SK-OV-3 = system: SK-OV-3
MDA-MB-435 = system: MDA-MB-435
MDA-N = system: MDA-N
SN12C = system: SN12C
K562 = system: K562
UACC-257 = system: UACC-257
SNB-75 = system: SNB-75
HCC 2998 = system: HCC 2998
Hs-578T = system: Hs-578T
CCRF-CEM = system: CCRF-CEM
T47D = system: T47D
CAKI-1 = system: CAKI-1
SF-539 = system: SF-539

Compound	GI50 (NCI-H23)	GI50 (NCI-H522)	GI50 (MDA-MB-231)	GI50 (KM12)	GI50 (HCT-116)	GI50 (UACC-62)	GI50 (Malme-3M)	GI50 (SK-OV-3)	GI50 (MDA-MB-435)	GI50 (MDA-N)	GI50 (SN12C)	GI50 (K562)	GI50 (UACC-257)	GI50 (SNB-75)	GI50 (HCC 2998)	GI50 (Hs-578T)	GI50 (CCRF-CEM)	GI50 (T47D)	GI50 (CAKI-1)	GI50 (SF-539)
CC(=O)O[C@H]1C#C/C=C\C#CC[C@@H]2C(=O)N[C@@H]12	11.2 µM (inactive)	19.1 µM (inactive)	> 100 µM (inactive)	> 100 µM (inactive)	27 µM (inactive)	26.4 µM (inactive)	22.9 µM (inactive)	57.8 µM (inactive)	> 100 µM (inactive)	81.7 µM (inactive)	26 µM (inactive)	> 62.8 µM (inactive)	> 42.4 µM (inactive)	28.1 µM (inactive)	25.1 µM (inactive)	47.3 µM (inactive)	4.13 µM (inactive)	52.7 µM (inactive)	4.5 µM (inactive)	0.726 µM (active)
CCOC(=O)N1N=C(/C(C)=N/OC)C(C)[S+]1[O-] (stereo not given)	> 100 µM (inactive)	> 100 µM (inactive)	> 100 µM (inactive)	> 100 µM (inactive)	> 100 µM (inactive)	> 100 µM (inactive)	> 100 µM (inactive)	> 100 µM (inactive)	> 100 µM (inactive)	> 100 µM (inactive)	> 100 µM (inactive)	> 100 µM (inactive)	> 100 µM (inactive)	85.3 µM (inactive)	> 100 µM (inactive)	> 100 µM (inactive)	> 100 µM (inactive)	> 100 µM (inactive)	> 100 µM (inactive)	> 100 µM (inactive)
